Measurements reported in US20140120598A1 (priority 2011, published 2014).
Like-named read-outs stand apart in the source and are kept apart here.

How the values were obtained:
[1] = tested on: ΔPHO13 strain (S. cerevisiae BY4741X with PHO13 deleted); assay type: cell-based; conditions: for amount of production of ethanol: 80 g/L xylose
Excerpt: (§1) A solution obtained by incorporating 80 g/L of xylose into a YP medium (containing 1% of a yeast extract, 2% of peptone, and 0.5% of […]) was used as a material using xylose as a carbon source. […]

[2] = tested on: BY4741X strain (control); assay: Fermentation with xylose as carbon source by the control strain in the presence of a fermentation inhibitor; assay type: cell-based, S. cerevisiae; conditions: 72 hours
Excerpt: as §1

[3] = tested on: S. cerevisiae MN8140X; conditions: 100 mM of acetic acid
Excerpt: A medium formed of 10 g/L of a yeast extract, 20 g/L of polypeptone, 80 g/L of glucose, and 60 g/L of xylose was used as the solution using glucose and xylose as carbon sources.

[4] = 60 mM of acetic acid, after 24 hours
[5] = 60 mM of acetic acid, after 72 hours
[6] = 30 mM of formic acid, after 24 hours
[7] = 30 mM of formic acid, after 72 hours
[8] = 60 mM of furfural versus no furfural, 72 hours
[9] = 90 mM of furfural, after 24 hours
[10] = 90 mM of furfural, after 72 hours

CC(=O)O [acetic acid]
resistance of the strain to the fermentation inhibitor in ethanol production using xylose as a carbon source [1]: resistant | amount of production of ethanol relative to control (BY4741X strain) [1, 4]: 2.3 times | amount of production of ethanol [1, 4]: 13 g/L | amount of production of ethanol relative to control (BY4741X strain) [1, 5]: 1.4 times | amount of production of ethanol [1, 5]: 20 g/L | consumption rate of xylose ([1]; acetic acid 0, 30 and 60 mM, 72 hours): reduced depending on an acetic acid concentration | consumption rate of xylose ([2]; acetic acid 0, 30 and 60 mM): reduced depending on an acetic acid concentration | action in ethanol production by the yeast [3]: showed a fermentation inhibitory action | amount of production of ethanol ([3]; fermentation 48 hours, 30° C.): also suppressed | consumption of glucose as a carbon source ([3]; fermentation 48 hours, 30° C.): suppressed

O=CO [formic acid]
resistance of the strain to the fermentation inhibitor in ethanol production using xylose as a carbon source [1]: resistant | amount of production of ethanol relative to control (BY4741X strain) [1, 6]: 4.1 times | amount of production of ethanol [1, 6]: 6 g/L | amount of production of ethanol relative to control (BY4741X strain) [1, 7]: 5.5 times | amount of production of ethanol [1, 7]: 11 g/L | xylose consumption and ethanol production versus inhibitor concentration ([1]; formic acid 0, 15 and 30 mM, 72 hours): a tendency similar to that in the case of acetic acid was observed

O=Cc1ccco1 [furfural]
resistance of the strain to the fermentation inhibitor in ethanol production using xylose as a carbon source [1]: resistant | consumption rate of xylose [1, 8]: substantially the same as that in the case where furfural was not incorporated | ethanol-producing ability [1, 8]: effective ethanol production was similarly observed | amount of production of ethanol relative to control (BY4741X strain) [1, 9]: 27.5 times | amount of production of ethanol [1, 9]: 21 g/L | amount of production of ethanol relative to control (BY4741X strain) [1, 10]: 5.5 times | amount of production of ethanol [1, 10]: 31 g/L | consumption rate of xylose ([2]; furfural 60 and 90 mM versus 0 mM): reduced
